Test system: neurons from primary cortical nerve tissue
Test: Suppression of Rho kinase activation (neurite lengths, keratan sulfate, Y27632)
Assay type: cell-based, mice
Procedure: Next, participation of Rho kinase was investigated in order to investigate the action mechanism of keratanase II in the above Experiment 1. The neurons were seeded onto an 8-well chamber to which a test sample was applied by the same manner as in the method of Experiment 1. Twenty-four hours after starting the incubation of the neurons, 15 μM of Y27632 (Rho kinase inhibitor, Sigma) was added to the neurons followed by incubating for 24 hours more. After that, the chamber was fixed with 4% of paraformaldehyde and the neurons were identified by an immunohistochemical means with Neuronal Class IIIβ tubulin (TUJ1) antibody (COVANCE). The neurite lengths were measured of from 80 to 90 neurons per condition, an average value thereof was calculated and shown by a graph. The test sample was the following four types.
(1) that which was applied with 25 μg/mL of poly-L-lysine (Sigma; hereinafter, the same) followed by being applied with 10 μg/mL of laminin (BD Biosciences; hereinafter, the same).
(2) that which was applied with 25 μg/mL of poly-L-lysine followed by being applied with 10 μg/mL of laminin and 20 μg/mL of keratan sulfate (Seikagaku Corporation; hereinafter, the same).
(3) that which was applied with 25 μg/mL of poly-L-lysine followed by being applied with 10 μg/mL of laminin and 40 μg/mL of keratan sulfate. […]

Row | Compound | release of inhibiting action for elongation of neurite lengths induced by keratan sulfate (keratan sulfate on poly-L-lysine/laminin, Y27632 15 μM or Ks36 keratanase II 0.01 U/mL without Y27632) | effect on elongation of the neurite lengths (keratan sulfate 20 or 40 μg/mL on poly-L-lysine/laminin)
1 | C[C@@H](N)[C@H]1CC[C@H](C(=O)Nc2ccncc2)CC1 [Y27632] | released | –
2 | keratan sulfate | – | induces the inhibition

— patent publication US8754036B2, “Method for treating neuropathic pain” (National University Corporation Nagoya University, priority 2007, dated 2014)
